Data taken from patent US20230398130A1, “METHODS AND COMPOSITIONS FOR DIFFERENTIATING STEM CELLS” (Massachusetts Institute of Technology, priority 2020, published 2023).

Tests used:
[1] = test system: ISC-enriched organoids; test: Primary screen, 384-well 2.5-D organoid differentiation (ENR+CD, 6 days): carbachol-induced lysozyme secretion (LYZ.S); type: cell-based, murine; conditions: primary screen; for Dose.FC.LYZ.S: FC vs plate median; for Z.LYZ.S: standard z score; for SSMD.LYZ.S: strictly standardized mean difference
From the text: (§1) High-throughput screening.

[2] = test system: ISC-enriched organoids; test: Primary screen, 384-well 2.5-D organoid differentiation (ENR+CD, 6 days): basal lysozyme secretion (LYZ.NS); type: cell-based, murine; conditions: primary screen; for Dose.FC.LYZ.NS: FC vs plate median; for Z.LYZ.NS: standard z score; for SSMD.LYZ.NS: strictly standardized mean difference
From the text: as §1

[3] = test system: ISC-enriched organoids; test: Primary screen, 384-well 2.5-D organoid differentiation (ENR+CD, 6 days, Target Selective Inhibitor Library, vs whole-plate median): ATP (CellTiter-Glo 3D, CTG); conditions: primary screen; for Dose.FC.CTG: FC vs plate median; for Z.CTG: standard z score; for SSMD.CTG: strictly standardized mean difference
[4] = 1st of the 4 dose lines of the treatment (dose not given)
[5] = 2nd of the 4 dose lines of the treatment (dose not given)
[6] = 3rd of the 4 dose lines of the treatment (dose not given)
[7] = 4th of the 4 dose lines of the treatment (dose not given)

| Substance | Dose.FC.LYZ.S ([1]; Dose 0.08 uM) [log 2 fold change] | Dose.FC.LYZ.S ([1]; Dose 0.40 uM) [log 2 fold change] | Dose.FC.LYZ.S ([1]; Dose 2.00 uM) [log 2 fold change] | Dose.FC.LYZ.S ([1]; Dose 10.00 uM) [log 2 fold change] | Z.LYZ.S [1, 4] | Z.LYZ.S [1, 5] | Z.LYZ.S [1, 6] | Z.LYZ.S [1, 7] | SSMD.LYZ.S [1, 4] | SSMD.LYZ.S [1, 5] | SSMD.LYZ.S [1, 6] | SSMD.LYZ.S [1, 7] | Dose.FC.LYZ.NS ([2]; Dose 0.08 uM) [log 2 fold change] | Z.LYZ.NS ([2]; Dose 0.08 uM) | Dose.FC.LYZ.NS ([2]; Dose 0.40 uM) [log 2 fold change] | Z.LYZ.NS ([2]; Dose 0.40 uM) | Dose.FC.LYZ.NS ([2]; Dose 2.00 uM) [log 2 fold change] | Z.LYZ.NS ([2]; Dose 2.00 uM) | Dose.FC.LYZ.NS ([2]; Dose 10.00 uM) [log 2 fold change] | Z.LYZ.NS ([2]; Dose 10.00 uM) | further results |
| --- | --- | --- | --- | --- | --- | --- | --- | --- | --- | --- | --- | --- | --- | --- | --- | --- | --- | --- | --- | --- | --- |
| HA14-1 | 0.190 | 0.316 | 0.170 | 0.149 | 1.231 | 2.041 | 1.099 | 0.964 | 1.264 | 1.052 | 1.202 | 0.449 | 0.121 | 1.052 | 0.137 | 1.195 | 0.154 | 1.345 | 0.132 | 1.151 | SSMD.LYZ.NS [2, 4]: 1.056; SSMD.LYZ.NS [2, 5]: 1.013; SSMD.LYZ.NS [2, 6]: 1.483; SSMD.LYZ.NS [2, 7]: 0.640; Dose.FC.CTG ([3]; Dose 0.08 uM): 0.534 log 2 fold change; Z.CTG ([3]; Dose 0.08 uM): 1.276; Dose.FC.CTG ([3]; Dose 0.40 uM): 0.526 log 2 fold change; Z.CTG ([3]; Dose 0.40 uM): 1.255; Dose.FC.CTG ([3]; Dose 2.00 uM): 0.554 log 2 fold change; Z.CTG ([3]; Dose 2.00 uM): 1.323; Dose.FC.CTG ([3]; Dose 10.00 uM): 0.388 log 2 fold change; Z.CTG ([3]; Dose 10.00 uM): 0.926; SSMD.CTG [3, 4]: 1.389; SSMD.CTG [3, 5]: 1.961; SSMD.CTG [3, 6]: 2.075; SSMD.CTG [3, 7]: 1.289 |
| I-BET151 (GSK1210151A) | −0.242 | −0.344 | −0.416 | −0.408 | −1.563 | −2.225 | −2.687 | −2.641 | −1.087 | −1.784 | −1.815 | −1.694 | −0.116 | −1.010 | −0.248 | −2.159 | −0.299 | −2.601 | −0.284 | −2.473 | SSMD.LYZ.NS [2, 4]: −0.856; SSMD.LYZ.NS [2, 5]: −1.677; SSMD.LYZ.NS [2, 6]: −1.629; SSMD.LYZ.NS [2, 7]: −1.342; Dose.FC.CTG ([3]; Dose 0.08 uM): −0.016 log 2 fold change; Z.CTG ([3]; Dose 0.08 uM): −0.039; Dose.FC.CTG ([3]; Dose 0.40 uM): −0.174 log 2 fold change; Z.CTG ([3]; Dose 0.40 uM): −0.415; Dose.FC.CTG ([3]; Dose 2.00 uM): −0.502 log 2 fold change; Z.CTG ([3]; Dose 2.00 uM): −1.200; Dose.FC.CTG ([3]; Dose 10.00 uM): −0.935 log 2 fold change; Z.CTG ([3]; Dose 10.00 uM): −2.233; SSMD.CTG [3, 4]: −0.045; SSMD.CTG [3, 5]: −0.433; SSMD.CTG [3, 6]: −1.788; SSMD.CTG [3, 7]: −2.304 |
| Ifenprodil Tartrate | 0.050 | 0.017 | −0.023 | −0.301 | 0.325 | 0.107 | −0.151 | −1.947 | 0.255 | 0.091 | −0.103 | −1.030 | 0.056 | 0.492 | −0.019 | −0.161 | 0.123 | 1.068 | −0.219 | −1.909 | SSMD.LYZ.NS [2, 4]: 0.372; SSMD.LYZ.NS [2, 5]: −0.116; SSMD.LYZ.NS [2, 6]: 0.504; SSMD.LYZ.NS [2, 7]: −1.176; Dose.FC.CTG ([3]; Dose 0.08 uM): 0.102 log 2 fold change; Z.CTG ([3]; Dose 0.08 uM): 0.243; Dose.FC.CTG ([3]; Dose 0.40 uM): 0.111 log 2 fold change; Z.CTG ([3]; Dose 0.40 uM): 0.265; Dose.FC.CTG ([3]; Dose 2.00 uM): −0.003 log 2 fold change; Z.CTG ([3]; Dose 2.00 uM): −0.008; Dose.FC.CTG ([3]; Dose 10.00 uM): −1.034 log 2 fold change; Z.CTG ([3]; Dose 10.00 uM): −2.471; SSMD.CTG [3, 4]: 0.218; SSMD.CTG [3, 5]: 0.279; SSMD.CTG [3, 6]: −0.009; SSMD.CTG [3, 7]: −1.277 |
| KX2-391 | −0.396 | −0.380 | −0.424 | −0.419 | −2.561 | −2.455 | −2.741 | −2.709 | −2.252 | −1.641 | −1.898 | −2.140 | −0.283 | −2.468 | −0.292 | −2.546 | −0.251 | −2.188 | −0.286 | −2.494 | SSMD.LYZ.NS [2, 4]: −2.177; SSMD.LYZ.NS [2, 5]: −1.855; SSMD.LYZ.NS [2, 6]: −1.701; SSMD.LYZ.NS [2, 7]: −2.061; Dose.FC.CTG ([3]; Dose 0.08 uM): −0.752 log 2 fold change; Z.CTG ([3]; Dose 0.08 uM): −1.796; Dose.FC.CTG ([3]; Dose 0.40 uM): −1.251 log 2 fold change; Z.CTG ([3]; Dose 0.40 uM): −2.989; Dose.FC.CTG ([3]; Dose 2.00 uM): −1.983 log 2 fold change; Z.CTG ([3]; Dose 2.00 uM): −4.737; Dose.FC.CTG ([3]; Dose 10.00 uM): −1.414 log 2 fold change; Z.CTG ([3]; Dose 10.00 uM): −3.377; SSMD.CTG [3, 4]: −2.473; SSMD.CTG [3, 5]: −2.845; SSMD.CTG [3, 6]: −2.822; SSMD.CTG [3, 7]: −1.255 |
| Maraviroc | 0.054 | 0.195 | 0.005 | 0.077 | 0.350 | 1.262 | 0.034 | 0.495 | 0.262 | 0.754 | 0.028 | 0.400 | 0.047 | 0.411 | 0.041 | 0.358 | 0.031 | 0.269 | 0.087 | 0.759 | SSMD.LYZ.NS [2, 4]: 0.274; SSMD.LYZ.NS [2, 5]: 0.365; SSMD.LYZ.NS [2, 6]: 0.225; SSMD.LYZ.NS [2, 7]: 0.547; Dose.FC.CTG ([3]; Dose 0.08 uM): −0.084 log 2 fold change; Z.CTG ([3]; Dose 0.08 uM): −0.201; Dose.FC.CTG ([3]; Dose 0.40 uM): 0.079 log 2 fold change; Z.CTG ([3]; Dose 0.40 uM): 0.188; Dose.FC.CTG ([3]; Dose 2.00 uM): −0.009 log 2 fold change; Z.CTG ([3]; Dose 2.00 uM): −0.022; Dose.FC.CTG ([3]; Dose 10.00 uM): 0.139 log 2 fold change; Z.CTG ([3]; Dose 10.00 uM): 0.331; SSMD.CTG [3, 4]: −0.294; SSMD.CTG [3, 5]: 0.187; SSMD.CTG [3, 6]: −0.030; SSMD.CTG [3, 7]: 0.270 |
